In the supplement of paper PMC10307832:

How the values were obtained:
Assay in all cases: relative viability (nuclei count vs DMSO), 5 days (fraction); higher = more cells survive
[1] = compound: C1COCCN1C2=NC(=NC3=C2OC4=C3C=CC=N4)C5=CC(=CC=C5)NC(=O)C6=CN=C(C=C6)N + Cc1cc(Nc2cc(N3CCN(C)CC3)nc(Sc3ccc(NC(=O)C4CC4)cc3)n2)n[nH]1 [Tozasertib] (partner 0.1 µM)
In short: (§1)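 Lung cancer cell lines were pin-tool dosed in 1536-well plates on the day after seeding, with either a lone drug or a fixed anchor-drug dose plus five library-drug doses (not always all listed) in √10 steps. Nuclei were counted on 4× images after 5 days. Relative viability is the ratio of treated-well to vehicle-well nuclei counts, with each value a median of duplicate plates.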

[2] = compound: Nc1ccccc1NC(=O)c1ccc(CNC(=O)OCc2cccnc2)cc1 [Entinostat] + CC(C)C[C@H](NC(=O)[C@H](Cc1ccccc1)NC(=O)c1cnccn1)B(O)O [Bortezomib] (partner 0.002 µM)
In short: as §1

[3] = compound: Nc1ccccc1NC(=O)c1ccc(CNC(=O)OCc2cccnc2)cc1 [Entinostat] + CS(=O)(=O)N1CCN(Cc2cc3nc(-c4cccc5[nH]ncc45)nc(N4CCOCC4)c3s2)CC1 [Pictilisib] (partner 1 µM)
In short: as §1

[4] = compound: Nc1ccccc1NC(=O)c1ccc(CNC(=O)OCc2cccnc2)cc1 [Entinostat] + O=C(c1cc(Cc2n[nH]c(=O)c3ccccc23)ccc1F)N1CCN(C(=O)C2CC2)CC1 [Olaparib] (partner 8 µM)
In short: as §1

Cell Line	relative viability ([1]; first compound 0.02 µM)	relative viability ([1]; first compound 0.06325 µM)	relative viability ([1]; first compound 0.2 µM)	relative viability ([1]; first compound 0.6325 µM)	relative viability ([1]; first compound 2 µM)	relative viability ([2]; first compound 0.02 µM)	relative viability ([2]; first compound 0.06325 µM)	relative viability ([2]; first compound 0.2 µM)	relative viability ([2]; first compound 0.6325 µM)	relative viability ([2]; first compound 2 µM)	relative viability ([3]; first compound 0.02 µM)	relative viability ([3]; first compound 0.06325 µM)	relative viability ([3]; first compound 0.2 µM)	relative viability ([3]; first compound 0.6325 µM)	relative viability ([3]; first compound 2 µM)	relative viability ([4]; first compound 0.02 µM)	relative viability ([4]; first compound 0.06325 µM)	relative viability ([4]; first compound 0.2 µM)	relative viability ([4]; first compound 0.6325 µM)	relative viability ([4]; first compound 2 µM)
NCI-H1993	0.551	0.569	0.524	0.567	0.538	1.1	1.16	1	0.723	0.543	0.878	0.876	0.916	0.888	0.833	1.25	1.11	1.01	0.892	0.375
NCI-H358		0.117	0.0984	0.099	0.0866						0.332	0.327	0.369	0.278	0.187	0.574	0.649	0.593	0.342	0.172
RERF-LC-KJ	0.594	0.577	0.35	0.327	0.326	1.06	1.21	0.998	0.643	0.417	0.695	0.527	0.516	0.431	0.375	0.901	0.903	0.795	0.373	0.282
NCI-H1915	0.439	0.492	0.392	0.408	0.264	1.05	0.959	0.998	0.644	0.638	0.899	0.94	0.844	0.328	0.218	0.244	0.274	0.23	0.21	0.144
NCI-H647	0.155	0.292	0.252	0.137	0.145	1.02	1.01	0.869	0.216	0.0717	0.508	0.755	0.469	0.314	0.093	0.522	0.333	0.426	0.0646	0.0559
SK-LU-1	0.348	0.287	0.266	0.284	0.314	1.34	1.4	0.988	0.537	0.305	0.503	0.493	0.622	0.38	0.333	0.469	0.497	0.394	0.313	0.288
NCI-H1563						0.841	0.843	0.908	0.722	0.65	0.721	0.639	0.617	0.684	0.646					
NCI-H1703						0.314	0.383	0.308	0.265	0.149	0.263	0.274	0.314	0.384	0.304	0.388	0.435	0.545	0.7	0.454
NCI-H1944	0.259	0.263	0.228	0.209	0.173						0.332	0.398	0.336	0.268	0.25	0.373	0.323	0.216	0.177	0.172
EBC-1						0.564	0.599	0.293	0.196	0.176	0.313	0.363	0.193	0.12	0.0976	0.68	0.732	0.696	0.203	0.174
NCI-H1792						0.952	0.992	1.03	0.802	0.606	0.245	0.239	0.164	0.0977	0.0839	0.488	0.358	0.483	0.133	0.0504
SK-MES-1	0.957	1.01	0.824	0.851	0.362						0.356	0.465	0.506	0.376	0.277	0.576	0.646	0.801	0.596	0.467
NCI-H1648	0.468	0.48	0.473		0.617											0.769	0.624	0.673	0.615	0.512
A549											0.551	0.555	0.451	0.364	0.2	0.332	0.375	0.334	0.258	0.232
NCI-H1299						1.04	0.985	0.934	0.858	0.732	0.793	0.848	0.63	0.532	0.394	1.03	0.923	0.965	0.702	0.585
NCI-H1793	0.314	0.305	0.262	0.29	0.279						0.317	0.333	0.285	0.235	0.219	0.929	0.959	0.743	0.681	0.236
NCI-H1623	0.376	0.457	0.411	0.432	0.461															
NCI-H2170	0.742	0.828	0.633	0.703	0.445						0.38	0.375	0.325	0.235	0.167	0.565	0.557	0.515	0.341	0.215
NCI-H1395	0.78	0.709	0.772	0.719	0.576						0.598	0.758	0.64	0.67	0.487	0.445	0.466	0.423	0.398	0.408
NCI-H522	0.491	0.497	0.472	0.374	0.541											0.58	0.713	0.582	0.686	0.494
Calu-6						1.02	1.02	0.944	0.69	0.504	0.814	0.934	0.864	0.615	0.383	0.603	0.539	0.637	0.381	0.323
LK-2	0.172	0.156	0.167	0.154	0.176						0.62	0.486	0.529	0.518	0.285	0.857	0.904	0.584	0.475	0.239
